pEC50: −log10 of the molar value. Where two headings read alike, the source gives them in different places.
How the values were obtained:
[1] = target: T1, rhinovirus 3C protease from HRV serotype-14 (Human rhinovirus 14, UniProt P03303); experiment: Inhibition of rhinovirus 3C protease activity (FRET assay), HRV-14; assay type: biochemical; details: read-out: Protease Inhibition kobs/I
T1 construct: Recombinant rhinovirus 3C proteases; made in house
Experimental: Stock solutions (50 mM, in DMSO) of various compounds were prepared; dilutions were in the same solvent. Recombinant rhinovirus 3C proteases (see Birch et al., “Purification of recombinant human rhinovirus 14 3C protease expressed in Escherichia coli,” Protein Expr. Pur. 1995, 6(5), 609–618) from serotypes 14, 16, and 2 were prepared by the following standard chromatographic procedures: (1) ion exchange using Q Sepharose Fast Flow from Pharmacia; (2) affinity chromatography using Affi-Gel Blue from Biorad; and (3) sizing using Sephadex G-100 from Pharmacia. Each assay sample contained 2% DMSO, 50 mM tris pH 7.6, 1 mM EDTA, a test compound at the indicated concentration, approximately 1 μM substrate, and 50–100 nM protease. The kobs/I values were obtained from reactions initiated by addition of enzyme rather than substrate. RVP activity was measured in the fluorescence resonance energy transfer assay. The substrate was (N-terminal) DABCYL-(Gly-Arg-Ala-Val-Phe-Gln-Gly-Pro-Val-Gly)-EDANS. In the uncleaved peptide, the EDANS fluorescence was quenched by the proximal DABCYL group. When the peptide was cleaved, the quenching was relieved, and activity was measured as an increase in fluorescence signal. In the Table, unless otherwise indicated, all data are for rhinovirus 3C protease from HRV serotype-14 (produced from the infectious cDNA clone constructed by Dr. Robert Rueckert, Institute for Molecular Virology, University of Wisconsin, Madison, Wis.). The data in the column designated kobs/[I] were measured from progress curves in enzyme start experiments.

[2] = Cytotoxicity in mock-infected H1-HeLa cells (XTT); assay type: cell-based; details: human, two days, read-out: Toxicity CC50
Experimental: (§1) In this cell protection assay, the ability of compounds to protect cells against HRV infection was measured by the XTT dye reduction method, which is described in Weislow et al., J. Natl. Cancer Inst. 1989, vol. 81, 577–586.
(§2) H1-HeLa cells were infected with HRV-14 at a multiplicity of infection (m.o.i.) of 0.13 (virus particles/cell) or mock-infected with medium only. Infected or mock-infected cells were resuspended at 8×10^5 cells per mL, and incubated with appropriate concentrations of the compounds to be tested. Two days later, XTT/PMS was added to test plates and the amount of formazan produced was quantified spectrophotometrically at 450/650 nm. The EC50 value was calculated as the concentration of compound that increased the percentage of formazan production in compound-treated, virus-infected cells to 50% of that produced by compound-free, mock-infected cells. The 50% cytotoxic dose (CC50) was calculated as the concentration of compound that decreased the percentage of formazan produced in compound-treated, mock-infected cells to 50% of that produced by compound-free, mock-infected cells.
(§3) All strains of human rhinovirus (HRV) for use in this assay were purchased from American Type Culture Collection (ATCC), except for HRV serotype-14 (produced from the infectious cDNA clone constructed by Dr. Robert Rueckert, Institute for Molecular Virology, University of Wisconsin, Madison, Wis.). HRV stocks were propagated and viral assays were performed in H1-HeLa cells (ATCC). Cells were grown in minimal essential medium with 10% fetal bovine serum, available from Life Technologies (Gaithersburg, Md.).

HRV-14 = experiment: Antirhinoviral H1-HeLa cell culture assay (cell protection, XTT), HRV-14; assay type: cell-based, human rhinovirus; details: Rhinovirus B, read-out: Cell Protection EC50
Experimental: as §1, §2, §3
The compounds were tested against control compounds WIN 51711, WIN 52084, and WIN 54954 (obtained from Sterling-Winthrop Pharmaceuticals), Pirodavir (obtained from Janssen Pharmaceuticals), and Pleconaril (prepared according to the method described in Diana et al., J. Med. Chem 1995, vol. 38, 1355). Antiviral data obtained for the test compounds are shown in the Table, where all data are for HRV serotype-14 unless otherwise noted in parentheses.

[3] = HRV-14 3C protease, progress curves, enzyme start
[4] = HRV14, 48 h, HRV-14, H1-HeLa cells, XTT, two days

T1 sequence (P03303 1538-1719): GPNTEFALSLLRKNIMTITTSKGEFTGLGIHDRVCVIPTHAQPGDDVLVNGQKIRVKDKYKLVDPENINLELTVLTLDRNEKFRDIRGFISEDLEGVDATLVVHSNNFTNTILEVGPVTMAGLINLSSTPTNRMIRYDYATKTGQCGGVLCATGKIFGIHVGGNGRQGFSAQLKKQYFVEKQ

Compound: CCOC(=O)/C=C/[C@H](C[C@@H]1CCNC1=O)NC(=O)c1cc2cc(OC)ccc2[nH]1 [Compound 41, 4S-[(5-Methoxy-1H-indole-2-carbonyl)-amino]-5-(2-oxo-pyrrolidin-3S-yl)-pent-2-enoic acid ethyl ester]
- kinact/KI [1]: 2190 M⁻¹ s⁻¹
- CC50 at 2 days [2]: > 100 µM
- pEC50 (HRV-14; HRV14, H1-HeLa, 48 h): 5.63

Compound: CCOC(=O)/C=C/[C@H](C[C@@H]1CCNC1=O)NC(=O)/C=C/c1ccc(C)c(Br)c1 [Compound 23, 4S-[3-(3-bromo-4-methyl-phenyl)-acryloylamino]-5-(2-oxo-pyrrolidin-3S-yl)-pent-2-enoic acid ethyl ester]
- kinact/KI [1]: 4080 M⁻¹ s⁻¹
- CC50 at 2 days [2]: > 10 µM
- pEC50 (HRV-14; HRV14, H1-HeLa, 48 h): 5.89

Compound: CCOC(=O)/C=C/[C@H](C[C@@H]1CCNC1=O)NC(=O)c1cc2cc(Br)ccc2[nH]1 [Compound 20]
- kinact/KI [1]: 1370 M⁻¹ s⁻¹
- CC50 at 2 days [2]: > 10 µM
- pEC50 (HRV-14; HRV14, H1-HeLa, 48 h): 5.36

Compound: CCOC(=O)/C=C/[C@H](CCC(N)=O)NC(=O)/C=C/c1cccc(Br)c1 [Compound 30, 4S-[3-(3-bromophenyl)-acryloylamino]-6-carbamoyl-hex-2-enoic acid ethyl ester]
- kinact/KI [1, 3]: 345 M⁻¹ s⁻¹
- CC50 at 2 days [2]: > 100 µM
- pEC50 (HRV-14; [4]): 5.49

Compound: CCOC(=O)/C=C/[C@H](C[C@@H]1CCNC1=O)NC(=O)c1cc2cc(C)ccc2[nH]1 [Compound 43, 4-[(5-Methyl-1H-indole-2-carbonyl)-amino]-5-(2-oxo-pyrrolidin-3-yl)-pent-2-enoic acid ethyl ester]
- kinact/KI [1]: 3460 M⁻¹ s⁻¹
- CC50 at 2 days [2]: > 100 µM
- pEC50 (HRV-14; HRV14, H1-HeLa, 48 h): 5.67

Compound: CCOC(=O)/C=C/[C@H](C[C@@H]1CCNC1=O)NC(=O)Nc1cccc2ccccc12 [Compound 56, 4S-(3-naphthalen-1-yl)-5-(2-oxo-pyrrolidin-3S-yl)-pent-2-enoic acid ethyl ester]
- kinact/KI [1]: 117 M⁻¹ s⁻¹
- CC50 at 2 days [2]: > 10 µM
- pEC50 (HRV-14; HRV14, H1-HeLa, 48 h): < 5.00

Compound: CCOC(=O)/C=C/[C@H](C[C@@H]1CCNC1=O)NC(=O)c1cc(-c2ccccc2)oc1C [Compound 45, 4S-[(2-Methyl-5-phenyl-furan-3-carbonyl)-amino]-5-(2-oxo-pyrrolidin-3S-yl)-pent-2-enoic acid ethyl ester]
- kinact/KI [1]: 4740 M⁻¹ s⁻¹
- CC50 at 2 days [2]: > 100 µM
- pEC50 (HRV-14; HRV14, H1-HeLa, 48 h): 5.71

Compound: CCOC(=O)/C=C/[C@H](CCC(N)=O)NC(=O)c1cc(C(C)(C)C)nn1Cc1ccccc1 [Compound 33, 4S-[(2-benzyl-5-tert-butyl-2H-pyrazole-3-carbonyl)-amino]-6-carbamoyl-hex-2-enoic acid ethyl ester]
- kinact/KI [1, 3]: 27 M⁻¹ s⁻¹
- CC50 at 2 days [2]: > 100 µM
- pEC50 (HRV-14; [4]): 4.90

Compound: CCOC(=O)/C=C/[C@H](CCC(N)=O)NC(=O)c1ccc2ccccc2n1 [Compound 31, 6-carbamoyl-4S-[(quinoline-2-carbonyl)-amino]-hex-2-enoic acid ethyl ester]
- kinact/KI [1, 3]: 110 M⁻¹ s⁻¹
- CC50 at 2 days [2]: > 100 µM
- pEC50 (HRV-14; [4]): 5.15

Compound: CCOC(=O)/C=C/[C@H](C[C@@H]1CCNC1=O)NC(=O)/C=C/c1ccc(F)c(Br)c1 [Compound 48, 4S-[3-(3-Bromo-4-fluoro-phenyl)-acryloylamino]-5-(2-oxo-pyrrolidin-3S-yl)-pent-2-enoic acid ethyl ester]
- kinact/KI [1]: 2860 M⁻¹ s⁻¹
- CC50 at 2 days [2]: > 100 µM
- pEC50 (HRV-14; HRV14, H1-HeLa, 48 h): 6.20

Compound: CCOC(=O)/C=C/[C@H](C[C@@H]1CCNC1=O)NC(=O)C1=Cc2ccccc2OC1 [Compound 67, 4S-[(2H-chromene-3-carbonyl)-amino]-5-(2-oxopyrrolidin-3S-yl)-pent-2-enoic acid ethyl ester]
- kinact/KI [1]: 886 M⁻¹ s⁻¹
- CC50 at 2 days [2]: > 100 µM
- pEC50 (HRV-14; HRV14, H1-HeLa, 48 h): 5.92

Compound: CCOC(=O)/C=C/[C@H](C[C@@H]1CCNC1=O)NC(=O)/C=C/c1ccc(C)cc1 [Compound 12, 5-(2-oxo-pyrrolidin-3S-yl)-4S-(3-p-tolyl-acryloylamino)-pent-2-enoic acid ethyl ester]
- kinact/KI [1]: 990 M⁻¹ s⁻¹
- CC50 at 2 days [2]: > 10 µM
- pEC50 (HRV-14; HRV14, H1-HeLa, 48 h): 5.56

Compound: CCOC(=O)/C=C/[C@H](CCC(N)=O)NC(=O)c1cnc2ccccc2n1 [Compound 28, 6-carbamoyl-4S-[(quinoxaline-2-carboxyl)-amino]-hex-2-enoic acid ethyl ester]
- kinact/KI [1, 3]: 64 M⁻¹ s⁻¹
- CC50 at 2 days [2]: > 100 µM
- pEC50 (HRV-14; [4]): 4.85

Compound: CCOC(=O)/C=C/[C@H](C[C@@H]1CCNC1=O)NC(=O)N[C@@H](CC(C)C)C(=O)OCC [Compound 24, 4S-[3-(1S-ethoxycarbonyl-3-methyl-butyl)-ureido]-5-(2-oxo-pyrrolidin-3S-yl)-pent-2-enoic acid ethyl ester]
- kinact/KI [1]: 1050 M⁻¹ s⁻¹
- CC50 at 2 days [2]: > 10 µM
- pEC50 (HRV-14; HRV14, H1-HeLa, 48 h): 5.34

Compound: CCOC(=O)/C=C/[C@H](C[C@@H]1CCNC1=O)NC(=O)c1cc2cc(OC)c(OC)cc2n1C [Compound 19, 4S-[(5,6-dimethoxy-1-methyl-indole-2-carbonyl)-amino]-5-(2-oxo-pyrrolidin-3S-yl)-pent-2-enoic acid ethyl ester]
- kinact/KI [1]: 1230 M⁻¹ s⁻¹
- CC50 at 2 days [2]: > 10 µM
- pEC50 (HRV-14; HRV14, H1-HeLa, 48 h): 5.87

Compound: CCOC(=O)/C=C/[C@H](CCC(N)=O)NC(=O)c1ccccc1 [Compound 34]
- kinact/KI [1, 3]: 10 M⁻¹ s⁻¹
- CC50 at 2 days [2]: > 100 µM
- pEC50 (HRV-14; [4]): < 4.00

Compound: CCOC(=O)/C=C/[C@H](CCC(N)=O)NC(=O)c1nn(-c2ccccc2)nc1C [Compound 32, 6-carbamoyl-4S-[(5-methyl-2-phenyl-2H-[1,2,3]triazole-4-carbonyl)-amino]-hex-2-enoic acid ethyl ester]
- kinact/KI [1, 3]: 83 M⁻¹ s⁻¹
- CC50 at 2 days [2]: > 100 µM
- pEC50 (HRV-14; [4]): 5.74

Compound: CCOC(=O)c1ccc(OCCC2CCN(c3ccc(C)nn3)CC2)cc1 [Pirodavir, reference compound]
- CC50 at 2 days [2]: > 10 µM
- pEC50 (HRV-14; [4]): 7.52

Compound: CCOC(=O)/C=C/[C@H](CCC(N)=O)NC(=O)c1ccc(Cl)c(Cl)c1 [Compound 35, 6-carbamoyl-4S-(3,4-dichloro-benzoylamino)-hex-2-enoic acid ethyl ester]
- kinact/KI [1, 3]: 35 M⁻¹ s⁻¹
- CC50 at 2 days [2]: 100 µM
- pEC50 (HRV-14; [4]): < 4.00

Compound: CCOC(=O)/C=C/[C@H](C[C@@H]1CCNC1=O)NC(=O)/C=C/c1ccc2c(c1)OCO2 [Compound 9, 4S-(3-benzo[1,3]dioxol-5-yl-acryloylamino)-5-(2-oxo-pyrrolidin-3S-yl)-pent-2-enoic acid ethyl ester]
- kinact/KI [1]: 1960 M⁻¹ s⁻¹
- CC50 at 2 days [2]: > 10 µM
- pEC50 (HRV-14; HRV14, H1-HeLa, 48 h): 5.74

Compound: CCOC(=O)/C=C/[C@H](CCC(N)=O)NC(=O)c1ccccc1CCc1ccccc1 [Compound 37, 6-carbamoyl-4S-(2-phenethyl-benzoylamino)-hex-2-enoic acid ethyl ester]
- kinact/KI [1, 3]: 6 M⁻¹ s⁻¹
- CC50 at 2 days [2]: > 100 µM
- pEC50 (HRV-14; [4]): < 4.00

Compound: CCOC(=O)/C=C/[C@H](CCC(N)=O)NC(=O)c1cc2ccccc2[nH]1 [Compound 38, 6-carbamyl-4S-[(1H-indole-2-carbonyl)-amino]-hex-2-enoic acid ethyl ester]
- kinact/KI [1, 3]: 71 M⁻¹ s⁻¹
- CC50 at 2 days [2]: > 100 µM
- pEC50 (HRV-14; [4]): 6.00

Compound: CCOC(=O)/C=C/[C@H](C[C@@H]1CCNC1=O)NC(=O)/C=C/c1cccc(Br)c1 [Compound 3, 4S-[3-(3-bromo-phenyl)-acryloylamino]-5-(2-oxo-pyrrolidin-3S-yl)-pent-2-enoic acid ethyl ester]
- kinact/KI [1]: 2560 M⁻¹ s⁻¹
- CC50 at 2 days [2]: > 10 µM
- pEC50 (HRV-14; HRV14, H1-HeLa, 48 h): 5.85

Compound: Cc1cc(CCCOc2c(C)cc(-c3noc(C(F)(F)F)n3)cc2C)on1 [Pleconaril, reference compound]
- CC50 at 2 days [2]: > 10 µM
- pEC50 (HRV-14; [4]): 8.00

Compound: CCOC(=O)/C=C/[C@H](CCC(N)=O)NC(=O)c1ccc(N(C)C)cc1 [Compound 27]
- kinact/KI [1, 3]: 45 M⁻¹ s⁻¹
- CC50 at 2 days [2]: > 100 µM
- pEC50 (HRV-14; [4]): 5.41
